Reference: a melting point compilation (Tetko et al.; mined from patent text by program, amines drawn as free bases though some values may be those of a salt)

Row | SMILES | melting point
1 | Cc1cc2c(c(C)c1O)C(C)(C)C(C)C2C (stereo not drawn) | 55 to 57 °C
2 | CC(C)(C)OC(=O)NCc1ccc(CNC(=O)N2CCN(C(=O)OCc3ccccc3)CC2)cc1 | 128 °C
3 | CCOC(=O)C(N=CC1C=C(Cl)C=CC1(OC(C)=O)c1ccccc1)C(=O)OCC (stereo not drawn) | 85 to 87 °C
4 | CCOC(=O)c1ccc(C(=O)Nc2ccc3c(c2)CCCC(=O)N3C)cc1 | 184 to 185 °C
5 | CCC(=O)NCc1ccc(CN2CCN(c3ccccc3)CC2)cc1 | 140 to 141 °C
6 | NC1=NC(c2ccc(OC(F)(F)F)cc2)(c2cccc(-c3cncc(F)c3)c2)C2=NCCON12 (stereo not drawn) | 120 to 135 °C
7 | O=S(=O)(Nc1ccc(Cl)cc1)C(Cl)=C(Cl)Cl | 73 to 76 °C
8 | O=[N+]([O-])c1cc(-n2ccnc2)ccc1Sc1cccc2cnccc12 | 187 to 189 °C
9 | CN(C)c1snc2c1c(N)nc(=O)n2Cc1ccccc1 | 190 to 195 °C
10 | COc1ccc(C=Cc2nnc(CCl)o2)cc1 | 139 to 141 °C
11 | Cc1ccc(CCC(=O)O)cc1C | 82 °C
12 | Cc1cc(O)n2nc(CN)nc2n1 | 204 to 207 °C
13 | CC(C)(/C=C/Br)C(=O)O | 30 °C
14 | CC(C)(C)c1ccc(C(=O)Nc2cn3cc(-c4ncc[nH]4)ccc3n2)cc1 | 300 to 301 °C
15 | c1ccc(COc2cc(-c3ccccn3)nc(-c3cccc(-c4ccccc4)n3)c2)cc1 | 182 °C
16 | COC(=O)c1cc(C(=O)c2c(C)c(OC)c3ccc(O)cn23)ccc1N | 216 °C
17 | O=C(O)c1ccc(OCCCN(CCO)c2ccc(Cl)cc2)cc1 | 120 to 122 °C
18 | COc1cc(-c2c(Cl)c(CN3CCCC3=O)nc3sc4c(c23)CCN(Cc2ccccc2)C4)ccc1O | 190 to 191 °C
19 | O=C(Cc1cccc2ccccc12)N1CC=C(c2cccc(C(F)(F)F)c2)CC1 | 137 to 140 °C
20 | Cc1c(-c2ccc(O)cc2)sc(C#N)c1-c1cccc(O)c1 | 220 to 222 °C
21 | CN1C(=O)C(NC(=O)CCC2CCCCC2)N=C(c2ccccc2)c2ccsc21 (stereo not drawn) | 189 to 190 °C
22 | COc1cc(-n2cc[nH]c2=O)c(Cl)cc1Cn1nc(-c2ccc(C(F)(F)F)cc2)oc1=O | 201 to 202 °C
23 | COc1cccc(CN(Cc2cccc(OC)c2)c2ccc(-c3ccccc3)cc2)c1 | 98 to 98.5 °C
24 | CCOC(=O)C(Cc1ccc(OCc2ccccc2)cc1)Oc1ccc(Cl)cc1 (stereo not drawn) | 63 to 64 °C
25 | CN(C)c1ccc(C=Cc2ccc(S(=O)(=O)CCCCCCCCCCCO)cc2)cc1 | 153 to 155 °C

Row | SMILES | melting point
26 | COc1ccc2cnc(Nc3ccccc3)nc2c1C(C)C | 172 to 173 °C
27 | Cc1ccc(F)cc1NC(=O)c1cc([N+](=O)[O-])ccc1NC(=O)CF | 217 to 219 °C
28 | COc1ccc(Nc2nc(C)ncc2S(=O)(=O)c2ccc(OCc3ccccc3)cc2)c(C)c1 | 110 to 114 °C
29 | CCNCC1CCN(c2c(F)cc3c(=O)c(C(=O)O)cn(C4CC4C)c3c2F)C1 (stereo not drawn) | 225 to 228 °C
30 | CC(=O)NC[C@H]1CN(c2ccc(N3CCC(O)(CN4CCNCC4)CC3)c(F)c2)C(=O)O1 | 175 to 177 °C
31 | C[C@@H](c1ccc(-c2ccc(F)cn2)cc1)N1CC[C@](CC(C)(C)O)(c2ccccc2)OC1=O | 159 to 160 °C
32 | COC(=O)c1nc(CN2CCOCC2)n(-c2ccc(Cl)cc2C(=O)c2ccccc2)n1 | 165 to 170 °C
33 | Cc1cccc(C)c1OC1CN(C(c2ccccc2)c2ccccc2)C1 | 99 to 100 °C
34 | CCOC(=O)c1oc2ccc(Cc3ccc(O)cc3)c(O)c2c1C | 182 to 184 °C
35 | CCOC(=O)CCCCn1c(C(=O)OCC)cc2c(Cl)cc(O)cc21 | 74 to 76 °C
36 | c1ccc(C(OC2CCN(CCCOc3ccc(-c4nnn[nH]4)cc3)CC2)c2ccccc2)cc1 | 167 to 171 °C
37 | CN1CCC2(C)c3cc(O)cc(Cl)c3N(C)C12 (stereo not drawn) | 152 to 154 °C
38 | O=C1CCN(C(=O)Cl)c2ccc(Cl)cc21 | 114 to 116 °C
39 | CC(=O)Nc1ccc(S(=O)c2ccc(Cl)cc2)cc1 (stereo not drawn) | 160 to 162 °C
40 | CCOc1ccc(Oc2c([N+](=O)[O-])cc(C(=O)OC)cc2[N+](=O)[O-])cc1 | 101 to 103 °C
41 | COCCNC(N)=Nc1nc(-c2cccc(CNC(C)=O)c2)cs1 | 123 to 124 °C
42 | Cc1cc(=O)c2cc(N)ccc2s1 | 265 °C
43 | CCCCN(NC(=O)c1ccccc1)C(=O)c1ccc(Cl)c(Cl)c1 | 234 to 236 °C
44 | C/C(=C\c1ccc(C(C)(C)C)cc1)CNc1cccc(-c2ccnc3c(C(=O)c4cccs4)cnn23)c1 | 135 to 137 °C
45 | O=C1Nc2ccccc2N(C(=O)CNCCc2ccccc2)C2CCC(Cc3ccccc3)C12 (stereo not drawn) | 108 to 109 °C
46 | CC(C)c1nc2[nH]c(=O)[nH]c(=O)c2c(-c2ccc(F)cc2)c1/C=C/C=O | 255 °C
47 | COc1ccc(-n2c(=O)n(O)c(=O)c3cc(F)c(N4CCN(C)CC4)cc32)cc1 | 195 to 196 °C
48 | N#CCCNC(=O)c1n[nH]cc1NC(=O)c1cc2ccccc2o1 | 231 to 233 °C
49 | O=C(O)C1CCCCCCCSC[C@@H](C(=O)O)NC1=O (stereo partly drawn) | 167 to 170 °C
50 | CC1(c2ccc(-c3ccc(F)cc3)cc2)CC(=O)NN1 (stereo not drawn) | 194 to 196 °C

Row | SMILES | melting point
51 | COc1ccc(C(=O)NC(=O)Nc2ccc3c(c2)NC(=O)/C3=C/c2ccc(Cl)cc2)cc1 | 278 to 283 °C
52 | Cc1ccc(C(=S)Oc2nc[nH]c2C(N)=O)cc1 | 219 °C
53 | CNc1nc(C)ccc1C(=O)OCC#N | 154 to 157 °C
54 | CCCCCCc1ccc(CCCCC(N)(CO)CO)cc1 | 99 to 102 °C
55 | NC(=O)C1CCN(c2cc(-c3ccccc3)nc3ccc(F)cc23)CC1 | 230 to 233 °C
56 | N#Cc1ccc(N2CCc3ccccc32)cc1 | 88.5 to 89.5 °C
57 | CCOC(=O)c1ccsc1Nc1ccc(F)cc1[N+](=O)[O-] | 125 °C
58 | CC=C(C)C1CCC2C3CC=C4CC(O)CCC4(C)C3CCC12C (stereo not drawn) | 140 to 145 °C
59 | O=C(N[C@H](Cc1ccccc1)C(=O)O)OCc1ccc2nc(-c3ccccc3)ccc2c1 | 190 to 191 °C
60 | O=S(=O)(Cl)c1ccc(SSc2ccc(S(=O)(=O)Cl)cc2)cc1 | 139 °C
61 | COc1ccc2c(c1)CCN1C[C@H]3CCCN(S(C)(=O)=O)[C@H]3C[C@@H]21 | 165 to 166 °C
62 | O=c1c(Cc2cccnc2)cc2cccnc2n1-c1cccc([N+](=O)[O-])c1 | 226 to 227 °C
63 | CC(C)(C)c1cc(C(=O)Nc2ccc([N+](=O)[O-])cc2)cc(C(C)(C)C)c1O | 277 to 278 °C
64 | Cc1cccc(C)c1NC(=O)CN1CCN(c2ncnc3sccc23)C(C)C1 (stereo not drawn) | 184 to 185 °C
65 | COC(=O)c1cc2cc(OC)c(OC)cc2c(-c2ccnc(Cl)c2)n1 | 246 to 247 °C
66 | COc1ccc(OCc2ccccc2)cc1CBr | 88 to 90 °C
67 | COc1nc(C(F)(F)F)cc(=O)n1-c1cc(O)c(Cl)cc1F | 147 to 149 °C
68 | c1ccc(CN2CCc3[nH]c4cc(-c5ccccc5)ccc4c3CC2)cc1 | 176 to 177 °C
69 | CC(C)C(=O)Nc1cccc(N(CCO)CCO)c1 | 120 to 122 °C
70 | CCCCCCC(=N)NC(=S)Nc1ccc(F)cc1 | 75 to 76 °C
71 | O=C(NCc1ccccc1)C1=C(C(=O)Nc2ccc(Cl)cc2F)CCCC1 | 121 to 123 °C
72 | N=C(N)Nc1nc2ccc(OCc3ccccc3)cc2[nH]1 | 224 to 227 °C
73 | COC(=O)c1cc(N2CCCC2)c(Oc2ccccc2)c(S(N)(=O)=O)c1 | 191 °C
74 | COc1c(NCc2cccc(C)c2)cc2oc(=O)[nH]c2c1F | 160 to 161 °C
75 | CC(C)Oc1ccccc1C1(OCC(=O)O)C(=O)Nc2ccc(Cl)cc21 (stereo not drawn) | 225 to 228 °C

Row | SMILES | melting point
76 | O=C(OCc1ccccc1)N1c2ccc(I)cc2CC1CO (stereo not drawn) | 110 to 111 °C
77 | CCCc1cccc2c(/C=C(\C)C(=O)O)cc(OC)c(OC(C)=O)c12 | 207 to 208 °C
78 | COc1ccccc1-c1ccc(C(=O)O)cc1 | 250 to 253 °C
79 | COc1cc(C(=O)NS(=O)(=O)c2ccccc2C)ccc1Cc1cn(CC(=O)N(C)C)c2ccc(NC(=O)CC3CCCC3)cc12 | 215 to 218 °C
80 | CCOC(=O)CC1CN=C(c2cc3c(C)ccc(N(C)S(=O)(=O)c4cccs4)c3[nH]2)S1 (stereo not drawn) | 109 to 110 °C
81 | COC(=O)[C@@H]1C[C@H](OC(=O)c2cccs2)C(=O)[C@H]2[C@@]1(C)CC[C@H]1C(=O)O[C@H](c3ccoc3)C[C@]21C | 143 to 145 °C
82 | CCc1cccc(C(=O)c2nc(OC)cc(OC)n2)c1N | 122 to 123 °C
83 | CN1c2ccc(C#CCO)cc2C(O)=C(C(=O)NCc2ccc(Cl)cc2)S1(=O)=O | 167 to 168 °C
84 | CN1Cc2[nH]c3ccccc3c2C1 | 110 to 120 °C
85 | Nc1ncc2cc(-c3ccccc3)c(N)nc2n1 | 317 to 318 °C
86 | O=C(Oc1ccc(F)cc1)[C@H]1CC[C@H](C(F)(F)C(F)(F)C(F)(F)C(F)(F)C(F)(F)C(F)(F)C(F)(F)F)CC1 | 93.6 °C
87 | CC(C)(C)OC(=O)N1CCN(C(c2ccccc2)c2ccccc2)CC1 | 129 to 131 °C
88 | O=C(Cl)c1ccc(Cl)c(S(=O)(=O)NC2CCCCC2)c1 | 119 °C
89 | CCOC(=O)C1=C2NCCN2C(C)=C(C(=O)OC(C)C)C1c1cccc([N+](=O)[O-])c1 (stereo not drawn) | 136 °C
90 | CC(=O)Nc1ccc(CNC(=O)c2cccnc2Oc2ccc(F)cc2)cc1 | 128 to 130 °C
91 | CC(C)c1ccc(-c2csc(-c3cccc(C(=O)O)c3)n2)cc1 | 206 to 208 °C
92 | Cc1ccc2nc(S)sc2c1 | 179 to 181 °C
93 | NS(=O)(=O)c1cccc(NC(=O)c2cnn3c(C(F)(F)F)cc(-c4ccc(C(F)(F)F)c(OCC(F)(F)F)c4)nc23)c1 | 233 °C
94 | CN(CCCS(=O)CCCC(F)(F)C(F)(F)F)CCOc1ccc(C2=C(c3ccccc3)CCCc3ccccc32)cc1 (stereo not drawn) | 74 to 77 °C
95 | CN(C)C(=O)Sc1ccc2ccncc2c1Cl | 140 to 142 °C
96 | COC(=O)C(=O)O[C@H]1C[C@@H](C(=O)OC)[C@]2(C)CC[C@H]3C(=O)O[C@H](c4ccoc4)C[C@]3(C)[C@H]2C1=O | 241 to 244 °C
97 | CCc1cc(Nc2nc(Nc3cc(CC)n[nH]3)c3ccccc3n2)[nH]n1 | 248 to 252 °C
98 | CC(=O)Nc1ccccc1C(=O)NCCN1[C@H](C)Cc2ccsc2[C@@H]1C (relative stereo) | 108 to 112 °C
